{
  "source": "paper PMC5218480",
  "about": "(PLoS ONE, 2017)",
  "system": "MV-4-11 cells",
  "experiment": "Gene expression microarray analysis (Affymetrix PrimeView) and GSEA",
  "type": "cell-based, human",
  "set-up": "RFU PODN (11730768_x_at) / Fold change /veh PODN (11730768_x_at) / RFU LINC00158 (11744669_a_at) / Fold change /veh LINC00158 (11744669_a_at) / RFU DUSP10 (11751237_a_at) / Fold change /veh DUSP10 (11751237_a_at) / RFU ID3 (11757404_x_at) / Fold change /veh ID3 (11757404_x_at) / RFU PLEKHG5 (11737974_s_at) / Fold change /veh PLEKHG5 (11737974_s_at) / RFU LRRC4B (11730491_at) / Fold change /veh LRRC4B (11730491_at) / RFU GIMAP4 (11747438_a_at) / Fold change /veh GIMAP4 (11747438_a_at) / RFU KRT8 (11758183_x_at) / Fold change /veh KRT8 (11758183_x_at) / RFU CNN1 (11734310_a_at) / Fold change /veh CNN1 (11734310_a_at) / RFU VPS37D (11726825_at) / Fold change /veh VPS37D (11726825_at) / RFU C10orf10 (11716522_x_at) / Fold change /veh C10orf10 (11716522_x_at) / RFU KIR2DL2 /// KIR2DL4 /// KIR2DL5A /// KIR2DL5B /// KIR2DS1 /// KIR2DS2 /// KIR2DS3 /// KIR2DS4 /// KIR3DL3 /// KIR3DL3 /// KIR3DS1 (11738374_at) / Fold change /veh KIR2DL2 /// KIR2DL4 /// KIR2DL5A /// KIR2DL5B /// KIR2DS1 /// KIR2DS2 /// KIR2DS3 /// KIR2DS4 /// KIR3DL3 /// KIR3DL3 /// KIR3DS1 (11738374_at) / RFU C1QL1 (11718748_at) / Fold change /veh C1QL1 (11718748_at) / RFU TMPRSS4 (11747572_a_at) / Fold change /veh TMPRSS4 (11747572_a_at) / RFU HAMP (11756126_x_at) / Fold change /veh HAMP (11756126_x_at) / RFU RNFT2 (11725882_a_at) / Fold change /veh RNFT2 (11725882_a_at) / RFU NR4A2 (11747474_a_at) / Fold change /veh NR4A2 (11747474_a_at) / RFU ABCC12 (11746883_a_at) / Fold change /veh ABCC12 (11746883_a_at) / RFU TMEM136 (11760407_x_at) / Fold change /veh TMEM136 (11760407_x_at) / RFU CLDN22 /// WWC2 (11732394_at) / Fold change /veh CLDN22 /// WWC2 (11732394_at) / RFU HLA-DPB1 (11760878_x_at) / Fold change /veh HLA-DPB1 (11760878_x_at) / RFU SPINT1 (11716480_a_at) / Fold change /veh SPINT1 (11716480_a_at) / RFU GAP43 (11754022_s_at) / Fold change /veh GAP43 (11754022_s_at) / RFU A4GNT (11735810_at) / Fold change /veh A4GNT (11735810_at) / RFU PRB3 (11715151_x_at) / Fold change /veh PRB3 (11715151_x_at) / RFU TUBB4B (11761932_at) / Fold change /veh TUBB4B (11761932_at) / RFU CAPN14 (11732068_a_at) / Fold change /veh CAPN14 (11732068_a_at) / RFU TMCC2 (11721928_a_at) / Fold change /veh TMCC2 (11721928_a_at) / RFU IRGQ (11745062_a_at) / Fold change /veh IRGQ (11745062_a_at) / RFU FAM174B (11720279_a_at) / Fold change /veh FAM174B (11720279_a_at) / RFU TMPRSS4 (11748680_a_at) / Fold change /veh TMPRSS4 (11748680_a_at) / RFU FAM212B (11763350_a_at) / Fold change /veh FAM212B (11763350_a_at) / RFU PLEKHG5 (11743358_a_at) / Fold change /veh PLEKHG5 (11743358_a_at) / RFU ZSCAN30 (11745921_a_at) / Fold change /veh ZSCAN30 (11745921_a_at) / RFU CMKLR1 (11741424_a_at) / Fold change /veh CMKLR1 (11741424_a_at) / RFU LOC101060620 /// MAPK8IP1 (11723275_at) / Fold change /veh LOC101060620 /// MAPK8IP1 (11723275_at) / RFU SPTSSB (11747773_x_at) / Fold change /veh SPTSSB (11747773_x_at) / RFU PRSS12 (11739890_at) / Fold change /veh PRSS12 (11739890_at) / RFU BIN1 (11741810_x_at) / Fold change /veh BIN1 (11741810_x_at) / RFU WNT11 (11732464_a_at) / Fold change /veh WNT11 (11732464_a_at) / RFU C10orf10 (11716521_a_at) / Fold change /veh C10orf10 (11716521_a_at) / RFU C5orf56 (11738089_at) / Fold change /veh C5orf56 (11738089_at) / RFU CYB561 (11721691_x_at) / Fold change /veh CYB561 (11721691_x_at) / RFU ANKRD19P (11752326_a_at) / Fold change /veh ANKRD19P (11752326_a_at) / RFU OR2T12 /// OR2T33 /// OR2T8 (11738714_s_at) / Fold change /veh OR2T12 /// OR2T33 /// OR2T8 (11738714_s_at) / RFU VCAN (11748164_a_at) / Fold change /veh VCAN (11748164_a_at) / RFU JSRP1 (11732532_at) / Fold change /veh JSRP1 (11732532_at) / RFU KRTAP10-11 (11738290_x_at) / Fold change /veh KRTAP10-11 (11738290_x_at) / RFU MYO3A (11730013_a_at) / Fold change /veh MYO3A (11730013_a_at) / RFU EBF3 (11725865_a_at) / Fold change /veh EBF3 (11725865_a_at) / RFU CAMK2N1 (11719241_x_at) / Fold change /veh CAMK2N1 (11719241_x_at) / RFU C5orf56 (11738088_a_at) / Fold change /veh C5orf56 (11738088_a_at) / RFU OLFML3 (11715873_a_at) / Fold change /veh OLFML3 (11715873_a_at) / RFU LOC100653217 /// NTM (11731650_a_at) / Fold change /veh LOC100653217 /// NTM (11731650_a_at) / RFU MAPK11 (11762145_a_at) / Fold change /veh MAPK11 (11762145_a_at) / RFU FIZ1 (11724087_x_at) / Fold change /veh FIZ1 (11724087_x_at) / RFU OASL (11726364_x_at) / Fold change /veh OASL (11726364_x_at) / RFU SOX15 (11748057_x_at) / Fold change /veh SOX15 (11748057_x_at) / RFU CD79A (11719716_a_at) / Fold change /veh CD79A (11719716_a_at) / RFU HIST1H1D (11736915_at) / Fold change /veh HIST1H1D (11736915_at) / RFU CASKIN2 (11723855_a_at) / Fold change /veh CASKIN2 (11723855_a_at) / RFU LOC730098 (11760151_x_at) / Fold change /veh LOC730098 (11760151_x_at) / RFU OR4N2 (11742367_at) / Fold change /veh OR4N2 (11742367_at) / RFU PRRT2 (11749266_a_at) / Fold change /veh PRRT2 (11749266_a_at) / RFU SNX32 (11753110_a_at) / Fold change /veh SNX32 (11753110_a_at) / RFU CDHR5 (11726645_a_at) / Fold change /veh CDHR5 (11726645_a_at) / RFU RCAN1 (11760418_a_at) / Fold change /veh RCAN1 (11760418_a_at) / RFU FAM167A (11723789_a_at) / Fold change /veh FAM167A (11723789_a_at) / RFU FAM26E (11764081_at) / Fold change /veh FAM26E (11764081_at) / RFU ISYNA1 (11749810_s_at) / Fold change /veh ISYNA1 (11749810_s_at) / RFU ACY1 (11761880_at) / Fold change /veh ACY1 (11761880_at) / RFU 11764098_at / Fold change /veh 11764098_at / RFU SAMD14 (11745864_x_at) / Fold change /veh SAMD14 (11745864_x_at) / RFU NPB (11741838_a_at) / Fold change /veh NPB (11741838_a_at) / RFU TMPRSS6 (11731388_a_at) / Fold change /veh TMPRSS6 (11731388_a_at) / RFU KRTAP10-2 (11738614_at) / Fold change /veh KRTAP10-2 (11738614_at) / RFU ARHGAP8 /// PRR5-ARHGAP8 (11727945_x_at) / Fold change /veh ARHGAP8 /// PRR5-ARHGAP8 (11727945_x_at) / RFU KRTAP5-7 /// NADSYN1 (11734609_at) / Fold change /veh KRTAP5-7 /// NADSYN1 (11734609_at) / RFU RASL12 (11751679_a_at) / Fold change /veh RASL12 (11751679_a_at) / RFU CDKN2B (11736163_a_at) / Fold change /veh CDKN2B (11736163_a_at) / RFU PRF1 (11729649_at) / Fold change /veh PRF1 (11729649_at) / RFU, ZNF638 /// ZNF638-IT1 / Fold change vs veh, ZNF638 /// ZNF638-IT1 / RFU, PANK3 / Fold change vs veh, PANK3 / RFU, SH3YL1 / Fold change vs veh, SH3YL1 / RFU, ZEB2 / Fold change vs veh, ZEB2 / RFU, NRIP1 / Fold change vs veh, NRIP1 / RFU, PTTG1IP / Fold change vs veh, PTTG1IP / RFU, CAPN2 / Fold change vs veh, CAPN2 / RFU, MED14 / Fold change vs veh, MED14 / RFU, SNORA58 / Fold change vs veh, SNORA58 / RFU, C1orf63 / Fold change vs veh, C1orf63 / RFU, LRRFIP1 / Fold change vs veh, LRRFIP1 / RFU, NDUFAF7 / Fold change vs veh, NDUFAF7 / RFU, SLC12A2 / Fold change vs veh, SLC12A2 / RFU, IBTK / Fold change vs veh, IBTK / RFU, ESF1 / Fold change vs veh, ESF1 / Fold change vs veh, TMEM50B / RFU, TAOK1 / Fold change vs veh, TAOK1 / RFU, ACBD3 / Fold change vs veh, ACBD3 / RFU, TMA16 / Fold change vs veh, TMA16 / RFU, RWDD3 / Fold change vs veh, RWDD3 / RFU, BCAT1 / Fold change vs veh, BCAT1 / RFU, EDEM3 / Fold change vs veh, EDEM3 / RFU, TMEM33 / Fold change vs veh, TMEM33 / RFU, WDR75 / Fold change vs veh, WDR75 / RFU, AHCTF1 / Fold change vs veh, AHCTF1 / RFU, TFRC / Fold change vs veh, TFRC / RFU, ZDHHC17 / Fold change vs veh, ZDHHC17 / RFU, NOM1 / Fold change vs veh, NOM1 / RFU, ARL8B / Fold change vs veh, ARL8B / RFU, ZBTB11 / Fold change vs veh, ZBTB11 / RFU, TAMM41 / Fold change vs veh, TAMM41 / RFU, KIAA1704 /// LOC100996395 / Fold change vs veh, KIAA1704 /// LOC100996395 / RFU, ING1 / Fold change vs veh, ING1 / RFU, TRMT61B / Fold change vs veh, TRMT61B / RFU, FUBP3 / Fold change vs veh, FUBP3 / RFU, TP53 / Fold change vs veh, TP53 / RFU, TNKS2 / Fold change vs veh, TNKS2 / RFU, ZFP14 / Fold change vs veh, ZFP14 / RFU, ACTR2 / Fold change vs veh, ACTR2 / RFU, PPP3R1 / Fold change vs veh, PPP3R1 / RFU, PIK3R1 / Fold change vs veh, PIK3R1 / RFU, HNRNPA1 / Fold change vs veh, HNRNPA1 / RFU, RNF170 / Fold change vs veh, RNF170 / RFU, ZNF28 / Fold change vs veh, ZNF28 / RFU, RNGTT / Fold change vs veh, RNGTT / RFU, OGT / Fold change vs veh, OGT / RFU, BRD1 / Fold change vs veh, BRD1 / RFU, MARS / Fold change vs veh, MARS / RFU, ZNF655 / Fold change vs veh, ZNF655 / RFU, FAHD1 / Fold change vs veh, FAHD1 / RFU, BDP1 / Fold change vs veh, BDP1 / RFU, LRRCC1 / Fold change vs veh, LRRCC1 / RFU, ARID1A / Fold change vs veh, ARID1A / RFU, ZNF146 / Fold change vs veh, ZNF146 / RFU, ZNF330 / Fold change vs veh, ZNF330 / RFU, GPN3 / Fold change vs veh, GPN3 / RFU, C9orf123 / Fold change vs veh, C9orf123 / RFU, N4BP2L2 / Fold change vs veh, N4BP2L2 / RFU, ARFIP1 / Fold change vs veh, ARFIP1 / RFU, FAM179B / Fold change vs veh, FAM179B / RFU, BCL10 / Fold change vs veh, BCL10 / RFU, UHRF1BP1L / Fold change vs veh, UHRF1BP1L / RFU, BET1 / Fold change vs veh, BET1 / RFU, CNOT2 / Fold change vs veh, CNOT2 / RFU, ZNF268 / Fold change vs veh, ZNF268 / Fold change vs veh, ZNF507 / RFU, DGCR2 / Fold change vs veh, DGCR2 / RFU, WDSUB1 / Fold change vs veh, WDSUB1 / Fold change vs veh, HSP90B1 /// MIR3652 / RFU, ADSS / Fold change vs veh, ADSS / RFU, GK / Fold change vs veh, GK / RFU, ZNF148 / Fold change vs veh, ZNF148 / RFU, TAF9 / Fold change vs veh, TAF9 / RFU, SLC1A5 / Fold change vs veh, SLC1A5 / RFU, SLMO2 / Fold change vs veh, SLMO2 / RFU, ABCC4 / Fold change vs veh, ABCC4 / RFU, LOC101060439 /// RAP1B / Fold change vs veh, LOC101060439 /// RAP1B / RFU, RFX7 / Fold change vs veh, RFX7 / RFU, GTPBP10 / Fold change vs veh, GTPBP10 / RFU, CNEP1R1 / Fold change vs veh, CNEP1R1 / RFU, BIVM-ERCC5 /// ERCC5 / Fold change vs veh, BIVM-ERCC5 /// ERCC5 / RFU, ILF3 / Fold change vs veh, ILF3 / RFU 11762660_at / Fold change /veh 11762660_at / RFU VCAN (11757783_s_at) / Fold change /veh VCAN (11757783_s_at) / RFU DDX43 (11728927_at) / Fold change /veh DDX43 (11728927_at) / RFU KRT8 (11758188_x_at) / Fold change /veh KRT8 (11758188_x_at) / RFU NKD1 (11759106_at) / Fold change /veh NKD1 (11759106_at) / RFU SRD5A1 (11742802_a_at) / Fold change /veh SRD5A1 (11742802_a_at) / RFU TPSAB1 /// TPSB2 (11721975_s_at) / Fold change /veh TPSAB1 /// TPSB2 (11721975_s_at) / RFU GSTM3 (11746129_a_at) / Fold change /veh GSTM3 (11746129_a_at) / RFU IL23R (11737362_x_at) / Fold change /veh IL23R (11737362_x_at) / RFU TMEM51 (11727254_a_at) / Fold change /veh TMEM51 (11727254_a_at) / RFU PIWIL2 (11732686_x_at) / Fold change /veh PIWIL2 (11732686_x_at) / RFU ORM1 (11744905_x_at) / Fold change /veh ORM1 (11744905_x_at) / RFU CCDC152 (11743942_at) / Fold change /veh CCDC152 (11743942_at) / RFU ECM1 (11717891_a_at) / Fold change /veh ECM1 (11717891_a_at) / RFU IL23R (11748794_a_at) / Fold change /veh IL23R (11748794_a_at) / RFU TNFAIP8L3 (11732012_x_at) / Fold change /veh TNFAIP8L3 (11732012_x_at) / RFU MBOAT4 (11741988_at) / Fold change /veh MBOAT4 (11741988_at) / RFU 11764193_at / Fold change /veh 11764193_at / RFU TMEM53 (11763286_at) / Fold change /veh TMEM53 (11763286_at) / RFU MAGEB2 (11727129_at) / Fold change /veh MAGEB2 (11727129_at) / RFU TMEM200A (11744735_a_at) / Fold change /veh TMEM200A (11744735_a_at) / RFU CCDC152 (11751479_a_at) / Fold change /veh CCDC152 (11751479_a_at) / RFU FAM211A (11726209_a_at) / Fold change /veh FAM211A (11726209_a_at) / RFU RGS16 (11746705_a_at) / Fold change /veh RGS16 (11746705_a_at) / RFU VCAN (11755009_s_at) / Fold change /veh VCAN (11755009_s_at) / RFU RHOB (11743442_s_at) / Fold change /veh RHOB (11743442_s_at) / RFU RGS16 (11720943_a_at) / Fold change /veh RGS16 (11720943_a_at) / RFU RGS16 (11720944_at) / Fold change /veh RGS16 (11720944_at) / RFU, VPS4B / Fold change vs veh, VPS4B / RFU, CREB1 / Fold change vs veh, CREB1 / RFU, DNAJC13 / Fold change vs veh, DNAJC13 / RFU, GNAQ / Fold change vs veh, GNAQ / RFU, CDK5R1 / Fold change vs veh, CDK5R1 / RFU, ZRANB3 / Fold change vs veh, ZRANB3 / RFU, CUL4A / Fold change vs veh, CUL4A / RFU, CCNY / Fold change vs veh, CCNY / RFU, UFL1 / Fold change vs veh, UFL1 / RFU, COG3 / Fold change vs veh, COG3 / RFU, DIAPH2 / Fold change vs veh, DIAPH2 / RFU, SKA2 / Fold change vs veh, SKA2 / RFU, AFF3 / Fold change vs veh, AFF3 / RFU, LMF1 / Fold change vs veh, LMF1 / RFU, IPO11 / Fold change vs veh, IPO11 / RFU, DFFB / Fold change vs veh, DFFB / RFU, FOXP1 / Fold change vs veh, FOXP1 / RFU, CARD8 / Fold change vs veh, CARD8 / RFU, STRN3 / Fold change vs veh, STRN3 / RFU, ADK / Fold change vs veh, ADK / RFU, RASSF2 / Fold change vs veh, RASSF2 / RFU, WIPF1 / Fold change vs veh, WIPF1 / RFU, LARP1B / Fold change vs veh, LARP1B / RFU, RASA1 / Fold change vs veh, RASA1 / RFU, RB1 / Fold change vs veh, RB1 / RFU, PPFIA1 / Fold change vs veh, PPFIA1 / RFU, MAT2A / Fold change vs veh, MAT2A / RFU, CCT5 / Fold change vs veh, CCT5 / RFU, WDR92 / Fold change vs veh, WDR92 / RFU, CUX1 / Fold change vs veh, CUX1 / RFU, TTC7A / Fold change vs veh, TTC7A / RFU, TMEM135 / Fold change vs veh, TMEM135 / RFU, DEPTOR / Fold change vs veh, DEPTOR / RFU, CPM / Fold change vs veh, CPM / RFU, DNAJB6 / Fold change vs veh, DNAJB6 / RFU, CACNA2D3 / Fold change vs veh, CACNA2D3 / RFU, DTX4 / Fold change vs veh, DTX4 / RFU, TFCP2 / Fold change vs veh, TFCP2 / RFU, GMCL1 /// GMCL1P1 / Fold change vs veh, GMCL1 /// GMCL1P1 / RFU, AEBP2 / Fold change vs veh, AEBP2 / RFU, SNHG1 /// SNORD22 /// SNORD25 /// SNORD26 /// SNORD27 /// SNORD28 /// SNORD29 /// SNORD31 / Fold change vs veh, SNHG1 /// SNORD22 /// SNORD25 /// SNORD26 /// SNORD27 /// SNORD28 /// SNORD29 /// SNORD31 / Fold change (Aza/veh), C12orf56 (ProbeSet 11735607_a_at) / Fold change (ACY-1035/veh), C12orf56 (ProbeSet 11735607_a_at) / Fold change (Aza/veh), FGFR1OP (ProbeSet 11751329_s_at) / Fold change (ACY-1035/veh), FGFR1OP (ProbeSet 11751329_s_at) / Fold change (Aza/veh), VPS36 (ProbeSet 11739960_a_at) / Fold change (ACY-1035/veh), VPS36 (ProbeSet 11739960_a_at) / RFU SYPL1 (11715823_x_at) / Fold change /veh SYPL1 (11715823_x_at) / RFU IGFBP7 (11715501_s_at) / Fold change /veh IGFBP7 (11715501_s_at) / RFU REEP3 (11722064_at) / Fold change /veh REEP3 (11722064_at) / RFU IGLL1 (11728026_x_at) / Fold change /veh IGLL1 (11728026_x_at): dose or concentration left out as unconfirmed",
  "settings": "MV-4-11 cells, 48 hours",
  "data": [
    {"smiles": "Nc1ncn([C@@H]2O[C@H](CO)[C@@H](O)[C@H]2O)c(=O)n1", "note": "[azacitidine]", "values": [
      {"measurement": "RFU SPTSSB (11747773_x_at)", "value": 34.53, "unit": "RFU"}
    ]}
  ]
}
